Laboratory results taken from ChEMBL document CHEMBL4507257, “Data for DCP probe ABT-100” (2021).

Assays:
[1] = molecular target: Calcium/calmodulin-dependent protein kinase type II subunit gamma (Homo sapiens) (UniProt Q13555); conditions: Compound concentration 1000.0 nM
[2] = molecular target: Dual specificity mitogen-activated protein kinase kinase 7 (Homo sapiens) (UniProt O14733); conditions: Compound concentration 1000.0 nM
[3] = molecular target: Cyclin-dependent kinase-like 1 (Homo sapiens) (UniProt Q00532); conditions: Compound concentration 1000.0 nM
Cyclin-dependent kinase-like 1 (Homo sapiens), sequence (Q00532 whole entry): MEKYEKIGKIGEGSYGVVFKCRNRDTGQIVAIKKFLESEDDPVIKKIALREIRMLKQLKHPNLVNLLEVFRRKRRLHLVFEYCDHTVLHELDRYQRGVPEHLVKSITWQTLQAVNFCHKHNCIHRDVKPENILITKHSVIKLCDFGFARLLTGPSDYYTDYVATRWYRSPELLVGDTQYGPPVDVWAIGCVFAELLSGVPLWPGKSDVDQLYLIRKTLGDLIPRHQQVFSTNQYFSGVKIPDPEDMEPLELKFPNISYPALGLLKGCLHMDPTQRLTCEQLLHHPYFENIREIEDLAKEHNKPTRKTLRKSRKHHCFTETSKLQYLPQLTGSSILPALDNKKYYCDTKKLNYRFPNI

[4] = molecular target: Cyclin-dependent kinase 11B (Homo sapiens) (UniProt P21127); conditions: Compound concentration 1000.0 nM
[5] = molecular target: Phosphatidylinositol 4,5-bisphosphate 3-kinase catalytic subunit delta isoform (Homo sapiens) (UniProt O00329); conditions: Compound concentration 1000.0 nM
Phosphatidylinositol 4,5-bisphosphate 3-kinase catalytic subunit delta isoform (Homo sapiens), sequence (O00329 whole entry, canonical isoform): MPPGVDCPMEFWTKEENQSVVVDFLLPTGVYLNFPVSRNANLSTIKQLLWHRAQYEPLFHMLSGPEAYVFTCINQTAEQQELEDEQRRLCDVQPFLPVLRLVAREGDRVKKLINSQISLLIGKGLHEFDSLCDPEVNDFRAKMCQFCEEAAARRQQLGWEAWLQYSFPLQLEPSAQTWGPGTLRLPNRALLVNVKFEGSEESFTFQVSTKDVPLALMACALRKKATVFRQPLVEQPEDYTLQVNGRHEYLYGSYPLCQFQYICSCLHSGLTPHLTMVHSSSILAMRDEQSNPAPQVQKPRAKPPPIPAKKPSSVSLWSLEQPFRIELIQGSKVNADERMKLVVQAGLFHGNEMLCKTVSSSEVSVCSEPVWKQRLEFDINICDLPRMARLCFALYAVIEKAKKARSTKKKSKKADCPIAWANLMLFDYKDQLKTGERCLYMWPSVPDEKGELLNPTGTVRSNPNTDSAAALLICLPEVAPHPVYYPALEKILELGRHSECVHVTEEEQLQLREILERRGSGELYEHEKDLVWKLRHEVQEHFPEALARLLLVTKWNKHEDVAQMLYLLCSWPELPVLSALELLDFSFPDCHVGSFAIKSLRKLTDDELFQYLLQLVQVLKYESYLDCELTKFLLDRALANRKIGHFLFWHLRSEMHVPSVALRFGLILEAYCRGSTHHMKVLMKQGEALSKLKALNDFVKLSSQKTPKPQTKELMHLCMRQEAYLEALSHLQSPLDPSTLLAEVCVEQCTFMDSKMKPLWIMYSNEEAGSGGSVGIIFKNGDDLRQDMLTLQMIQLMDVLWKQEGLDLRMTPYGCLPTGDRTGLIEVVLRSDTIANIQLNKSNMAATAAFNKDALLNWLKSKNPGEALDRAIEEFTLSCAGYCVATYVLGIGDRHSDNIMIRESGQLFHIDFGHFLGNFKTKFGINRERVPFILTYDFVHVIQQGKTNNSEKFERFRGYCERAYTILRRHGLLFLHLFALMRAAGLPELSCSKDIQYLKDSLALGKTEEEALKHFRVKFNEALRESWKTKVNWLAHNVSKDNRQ

[6] = molecular target: Cyclin-dependent kinase 7 (Homo sapiens, UniProt P50613); conditions: Compound concentration 1000.0 nM
[7] = molecular target: Dual specificity testis-specific protein kinase 1 (Homo sapiens) (UniProt Q15569); conditions: Compound concentration 1000.0 nM
Dual specificity testis-specific protein kinase 1 (Homo sapiens), sequence (Q15569 whole entry, looked up): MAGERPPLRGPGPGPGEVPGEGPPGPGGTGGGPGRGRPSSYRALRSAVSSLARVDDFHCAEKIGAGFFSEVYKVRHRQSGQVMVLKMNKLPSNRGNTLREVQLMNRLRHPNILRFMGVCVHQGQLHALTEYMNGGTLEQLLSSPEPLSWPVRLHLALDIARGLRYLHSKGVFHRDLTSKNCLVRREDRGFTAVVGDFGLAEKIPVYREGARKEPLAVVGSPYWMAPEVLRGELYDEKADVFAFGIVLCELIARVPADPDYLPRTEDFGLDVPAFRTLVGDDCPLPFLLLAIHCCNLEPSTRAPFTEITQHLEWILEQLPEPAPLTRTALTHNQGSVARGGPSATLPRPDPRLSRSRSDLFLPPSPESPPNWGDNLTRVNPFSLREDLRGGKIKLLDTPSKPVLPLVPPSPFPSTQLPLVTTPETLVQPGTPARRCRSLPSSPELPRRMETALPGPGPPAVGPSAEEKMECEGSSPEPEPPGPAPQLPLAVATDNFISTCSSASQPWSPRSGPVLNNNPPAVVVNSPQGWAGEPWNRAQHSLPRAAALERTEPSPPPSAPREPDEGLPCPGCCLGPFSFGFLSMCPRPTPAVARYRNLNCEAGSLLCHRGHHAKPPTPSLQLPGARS

[8] = molecular target: Histamine H1 receptor (Homo sapiens, UniProt P35367); conditions: Compound concentration 10.0 uM
Histamine H1 receptor, sequence (P35367 whole entry): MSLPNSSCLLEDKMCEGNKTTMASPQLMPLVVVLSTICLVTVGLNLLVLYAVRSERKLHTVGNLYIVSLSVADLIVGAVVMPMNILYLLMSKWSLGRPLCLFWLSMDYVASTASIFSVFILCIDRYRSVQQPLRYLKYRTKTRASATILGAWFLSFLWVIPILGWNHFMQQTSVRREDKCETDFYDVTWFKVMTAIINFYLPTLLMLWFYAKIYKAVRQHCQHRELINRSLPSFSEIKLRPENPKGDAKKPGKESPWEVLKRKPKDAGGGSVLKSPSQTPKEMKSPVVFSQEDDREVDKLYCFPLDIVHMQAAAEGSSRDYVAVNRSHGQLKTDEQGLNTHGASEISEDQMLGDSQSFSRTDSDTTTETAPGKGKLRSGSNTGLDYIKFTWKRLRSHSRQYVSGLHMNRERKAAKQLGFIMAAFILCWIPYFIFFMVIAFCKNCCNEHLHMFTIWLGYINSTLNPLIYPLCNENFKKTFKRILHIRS

[9] = molecular target: Serine/threonine-protein kinase RIO3 (Homo sapiens) (UniProt O14730); conditions: Compound concentration 1000.0 nM
[10] = molecular target: 5-hydroxytryptamine receptor 6 (Homo sapiens) (UniProt P50406); conditions: Compound concentration 10.0 uM
[11] = molecular target: Serine/threonine-protein kinase 17B (Homo sapiens) (UniProt O94768); conditions: Compound concentration 1000.0 nM
[12] = molecular target: Ephrin type-B receptor 6 (Homo sapiens) (UniProt O15197); conditions: Compound concentration 1000.0 nM
[13] = molecular target: Epidermal growth factor receptor (Homo sapiens) (UniProt P00533); conditions: Compound concentration 1000.0 nM
[14] = molecular target: Serine/threonine-protein kinase RIO1 (Homo sapiens) (UniProt Q9BRS2); conditions: Compound concentration 1000.0 nM
[15] = molecular target: Ribosomal protein S6 kinase alpha-1 (Homo sapiens) (UniProt Q15418); conditions: Compound concentration 1000.0 nM
[16] = molecular target: Sigma intracellular receptor 2 (Homo sapiens) (UniProt Q5BJF2); conditions: Compound concentration 10.0 uM
[17] = molecular target: Tyrosine-protein kinase Fer (Homo sapiens) (UniProt P16591); conditions: Compound concentration 1000.0 nM
[18] = molecular target: 5-hydroxytryptamine receptor 1E (Homo sapiens) (UniProt P28566); conditions: Compound concentration 10.0 uM
5-hydroxytryptamine receptor 1E (Homo sapiens), sequence (P28566 whole entry): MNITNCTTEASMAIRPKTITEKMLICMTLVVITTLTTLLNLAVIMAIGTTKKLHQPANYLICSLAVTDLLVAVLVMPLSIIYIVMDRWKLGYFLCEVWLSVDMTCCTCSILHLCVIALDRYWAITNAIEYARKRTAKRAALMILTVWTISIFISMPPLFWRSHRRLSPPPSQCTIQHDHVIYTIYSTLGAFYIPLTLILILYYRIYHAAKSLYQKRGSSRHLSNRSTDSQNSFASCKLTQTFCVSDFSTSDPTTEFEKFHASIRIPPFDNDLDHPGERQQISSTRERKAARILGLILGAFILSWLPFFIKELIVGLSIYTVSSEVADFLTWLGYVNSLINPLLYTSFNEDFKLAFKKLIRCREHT

[19] = molecular target: T1, 5-hydroxytryptamine receptor 1A (Homo sapiens) (UniProt P08908); conditions: Compound concentration 10.0 uM
T1 sequence (whole entry): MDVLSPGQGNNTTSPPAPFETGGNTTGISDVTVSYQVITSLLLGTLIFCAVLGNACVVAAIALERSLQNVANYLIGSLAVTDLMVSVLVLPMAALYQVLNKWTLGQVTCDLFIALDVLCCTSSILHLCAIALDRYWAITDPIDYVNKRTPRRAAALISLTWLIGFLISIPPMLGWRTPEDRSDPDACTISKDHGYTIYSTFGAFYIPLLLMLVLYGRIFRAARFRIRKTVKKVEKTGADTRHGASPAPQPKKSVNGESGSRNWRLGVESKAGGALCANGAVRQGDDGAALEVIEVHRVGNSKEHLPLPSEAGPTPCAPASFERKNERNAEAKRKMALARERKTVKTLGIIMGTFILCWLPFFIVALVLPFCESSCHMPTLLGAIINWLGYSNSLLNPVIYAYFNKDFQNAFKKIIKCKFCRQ

[20] = molecular target: Serine/threonine-protein kinase WNK1 (Homo sapiens) (UniProt Q9H4A3); conditions: Compound concentration 1000.0 nM
[21] = molecular target: High affinity nerve growth factor receptor (Homo sapiens) (UniProt P04629); conditions: Compound concentration 1000.0 nM
High affinity nerve growth factor receptor (Homo sapiens), sequence (P04629 33-796 limits assumed): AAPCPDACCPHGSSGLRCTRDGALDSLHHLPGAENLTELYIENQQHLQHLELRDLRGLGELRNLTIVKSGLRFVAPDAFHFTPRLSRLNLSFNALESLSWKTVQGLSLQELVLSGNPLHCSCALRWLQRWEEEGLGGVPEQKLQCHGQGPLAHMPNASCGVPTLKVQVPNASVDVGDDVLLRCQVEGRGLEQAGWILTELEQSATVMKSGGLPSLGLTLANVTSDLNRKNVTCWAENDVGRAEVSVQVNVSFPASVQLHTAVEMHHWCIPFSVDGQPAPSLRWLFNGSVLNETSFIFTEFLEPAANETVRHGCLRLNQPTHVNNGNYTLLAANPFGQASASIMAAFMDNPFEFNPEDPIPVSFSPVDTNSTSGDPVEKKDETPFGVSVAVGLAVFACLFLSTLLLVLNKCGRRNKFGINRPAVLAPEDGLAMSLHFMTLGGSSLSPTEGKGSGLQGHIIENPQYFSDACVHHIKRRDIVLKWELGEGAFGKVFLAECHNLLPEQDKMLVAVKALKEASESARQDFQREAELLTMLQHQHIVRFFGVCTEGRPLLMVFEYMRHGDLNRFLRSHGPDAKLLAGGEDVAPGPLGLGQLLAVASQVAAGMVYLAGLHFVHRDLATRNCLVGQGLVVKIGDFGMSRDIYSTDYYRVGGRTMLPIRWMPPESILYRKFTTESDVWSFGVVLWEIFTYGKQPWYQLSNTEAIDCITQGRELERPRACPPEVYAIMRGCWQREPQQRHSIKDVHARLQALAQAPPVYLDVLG

[22] = molecular target: Casein kinase II subunit alpha (Homo sapiens) (UniProt P68400); conditions: Compound concentration 1000.0 nM
Casein kinase II subunit alpha (Homo sapiens), sequence (P68400 whole entry, looked up): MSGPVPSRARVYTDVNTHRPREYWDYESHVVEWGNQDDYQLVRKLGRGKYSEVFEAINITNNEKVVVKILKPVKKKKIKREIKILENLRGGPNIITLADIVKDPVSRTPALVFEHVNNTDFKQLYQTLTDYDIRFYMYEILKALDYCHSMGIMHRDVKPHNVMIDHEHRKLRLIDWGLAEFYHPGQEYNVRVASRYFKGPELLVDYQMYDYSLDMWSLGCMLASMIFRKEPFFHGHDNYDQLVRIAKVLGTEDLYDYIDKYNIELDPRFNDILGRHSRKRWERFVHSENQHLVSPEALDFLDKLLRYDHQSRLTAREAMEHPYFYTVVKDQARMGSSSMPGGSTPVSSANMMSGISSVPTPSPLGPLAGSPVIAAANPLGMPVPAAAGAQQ

[23] = molecular target: Mitogen-activated protein kinase kinase kinase 13 (Homo sapiens) (UniProt O43283); conditions: Compound concentration 1000.0 nM
[24] = molecular target: Angiopoietin-1 receptor (Homo sapiens) (UniProt Q02763); conditions: Compound concentration 1000.0 nM
[25] = molecular target: Mitogen-activated protein kinase 6 (Homo sapiens) (UniProt Q16659); conditions: Compound concentration 1000.0 nM
[26] = molecular target: Citron Rho-interacting kinase (Homo sapiens) (UniProt O14578); conditions: Compound concentration 1000.0 nM
[27] = system: Epidermal growth factor receptor (Homo sapiens), P00533 [L861Q]; conditions: Compound concentration 1000.0 nM
[28] = molecular target: Serine/threonine-protein kinase 35 (Homo sapiens) (UniProt Q8TDR2); conditions: Compound concentration 1000.0 nM
[29] = molecular target: Serine/threonine-protein kinase 32A (Homo sapiens) (UniProt Q8WU08); conditions: Compound concentration 1000.0 nM
Serine/threonine-protein kinase 32A (Homo sapiens), sequence (Q8WU08 whole entry): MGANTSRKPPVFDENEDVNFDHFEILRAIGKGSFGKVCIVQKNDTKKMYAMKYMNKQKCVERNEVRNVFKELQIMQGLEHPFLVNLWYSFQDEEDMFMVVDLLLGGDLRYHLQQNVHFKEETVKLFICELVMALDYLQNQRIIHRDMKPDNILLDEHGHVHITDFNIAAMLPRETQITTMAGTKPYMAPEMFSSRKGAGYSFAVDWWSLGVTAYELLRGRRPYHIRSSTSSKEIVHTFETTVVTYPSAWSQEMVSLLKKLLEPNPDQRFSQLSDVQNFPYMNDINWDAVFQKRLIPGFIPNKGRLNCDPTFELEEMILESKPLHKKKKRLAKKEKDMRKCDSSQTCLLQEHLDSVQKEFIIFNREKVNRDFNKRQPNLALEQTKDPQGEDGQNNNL

[30] = molecular target: Tyrosine-protein kinase Mer (Homo sapiens) (UniProt Q12866); conditions: Compound concentration 1000.0 nM
[31] = molecular target: NUAK family SNF1-like kinase 1 (Homo sapiens) (UniProt O60285); conditions: Compound concentration 1000.0 nM
[32] = molecular target: Serine/threonine-protein kinase PAK 5 (Homo sapiens) (UniProt Q9P286); conditions: Compound concentration 1000.0 nM
[33] = molecular target: MAP/microtubule affinity-regulating kinase 3 (Homo sapiens) (UniProt P27448); conditions: Compound concentration 1000.0 nM
[34] = system: Proto-oncogene tyrosine-protein kinase receptor Ret (Homo sapiens), P07949 [M918T]; conditions: Compound concentration 1000.0 nM
[35] = molecular target: Calcium/calmodulin-dependent protein kinase type II subunit delta (Homo sapiens) (UniProt Q13557); conditions: Compound concentration 1000.0 nM
[36] = molecular target: Interleukin-1 receptor-associated kinase 4 (Homo sapiens) (UniProt Q9NWZ3); conditions: Compound concentration 1000.0 nM
[37] = molecular target: Serine/threonine-protein kinase TBK1 (Homo sapiens) (UniProt Q9UHD2); conditions: Compound concentration 1000.0 nM
[38] = system: Receptor-type tyrosine-protein kinase FLT3 (Homo sapiens), P36888 [D835Y]; conditions: Compound concentration 1000.0 nM
[39] = molecular target: Death-associated protein kinase 1 (Homo sapiens) (UniProt P53355); conditions: Compound concentration 1000.0 nM
[40] = molecular target: STE20/SPS1-related proline-alanine-rich protein kinase (Homo sapiens) (UniProt Q9UEW8); conditions: Compound concentration 1000.0 nM

Dual specificity mitogen-activated protein kinase kinase 7 (Homo sapiens), sequence (O14733 whole entry): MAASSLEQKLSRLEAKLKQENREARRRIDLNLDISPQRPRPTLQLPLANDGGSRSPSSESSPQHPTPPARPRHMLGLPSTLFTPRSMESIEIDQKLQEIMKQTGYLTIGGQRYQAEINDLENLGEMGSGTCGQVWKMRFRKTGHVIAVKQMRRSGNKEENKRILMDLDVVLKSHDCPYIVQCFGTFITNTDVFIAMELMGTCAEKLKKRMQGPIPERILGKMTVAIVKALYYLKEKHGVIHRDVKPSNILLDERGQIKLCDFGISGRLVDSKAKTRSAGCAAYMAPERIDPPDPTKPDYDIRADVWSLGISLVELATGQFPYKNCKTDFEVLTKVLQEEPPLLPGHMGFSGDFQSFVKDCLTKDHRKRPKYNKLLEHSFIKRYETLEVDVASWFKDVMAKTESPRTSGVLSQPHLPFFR

Structure (SMILES)	residual activity [1] [%]	residual activity [2] [%]	residual activity [3] [%]	residual activity [4] [%]	residual activity [5] [%]	residual activity [6] [%]	residual activity [7] [%]	inhibition [8] [%]	residual activity [9] [%]	inhibition [10] [%]	residual activity [11] [%]	residual activity [12] [%]	residual activity [13] [%]	residual activity [14] [%]	residual activity [15] [%]	inhibition [16] [%]	residual activity [17] [%]	inhibition [18] [%]	inhibition [19] [%]	residual activity [20] [%]	also measured
Cn1cncc1[C@@](O)(COc1ccc(C#N)cc1-c1ccc(OC(F)(F)F)cc1)c1ccc(C#N)cc1 [A-108]	98	96	89	92	84	63	92	43.5	90	14.2	84	100	100	100	100	37.8	100	7.11	-6.52	100	residual activity [21]: 91%; residual activity [22]: 100%; residual activity [23]: 72%; residual activity [24]: 92%; residual activity [25]: 93%; residual activity [26]: 97%; residual activity [27]: 100%; residual activity [28]: 100%; residual activity [29]: 75%; residual activity [30]: 69%; residual activity [31]: 100%; residual activity [32]: 100%; residual activity [33]: 93%; residual activity [34]: 98%; residual activity [35]: 95%; residual activity [36]: 80%; residual activity [37]: 100%; residual activity [38]: 78%; residual activity [39]: 100%; residual activity [40]: 100%
Cn1cncc1[C@](O)(COc1ccc(C#N)cc1-c1ccc(OC(F)(F)F)cc1)c1ccc(C#N)cc1 [ABT-100]	94	100	82	100	79	95	100	88.8	95	6.74	64	95	80	72	100	40.3	83	1.11	10.8	100	residual activity [21]: 91%; residual activity [22]: 63%; residual activity [23]: 100%; residual activity [24]: 92%; residual activity [25]: 85%; residual activity [26]: 77%; residual activity [27]: 71%; residual activity [28]: 100%; residual activity [29]: 100%; residual activity [30]: 84%; residual activity [31]: 81%; residual activity [32]: 94%; residual activity [33]: 100%; residual activity [34]: 95%; residual activity [35]: 100%; residual activity [36]: 75%; residual activity [37]: 100%; residual activity [38]: 95%; residual activity [39]: 84%; residual activity [40]: 50%
